Numbered stars: 1 amine (or outer) side, 2 acyl side, 3 side chain; on linkers, the order of the positions; unused ones are H or OH. Square brackets hold non-standard residues; d marks the D form. Ends that are not written are not given here. Peptide text beside a SMILES is read from it. * marks the point of attachment. Quinoline(6-carbonyl) = O=C(c1ccc2ncccc2c1)*; X11 = O=C(c1cn(S(=O)(=O)c2ccccc2)c2ccccc12)*; X6 = Cc1c(C(=O)*)cc(-c2ccccc2)n1-c1ccccc1; NMe4Abz = CN(c1ccc(C(=O)[*:2])cc1)[*:1]; X3 = Cc1ccc(-c2cn(CC(=O)*)c(=O)cn2)cc1; pT = C[C@@H](OP(=O)(O)O)[C@H](N)C(=O)O; X14 = COc1cccc(-c2cc(C(=O)*)[nH]n2)c1; Benzoyl(4-OMe) = COc1ccc(C(=O)*)cc1; X7 = Cc1ccc2c(c1)N(CC(=O)*)C(=O)CO2; Benzoyl(4-Et) = CCc1ccc(C(=O)*)cc1; 1Naphthoyl = O=C(c1cccc2ccccc12)*; X2 = Cc1nc(-c2ccc(C(=O)*)cc2)no1; X10 = COc1cc(C(=O)*)cc2c1OCCO2; X15 = COc1ccc(C(=O)*)c2ccccc12; X8 = Cc1cc2c(SCC(=O)*)ncnc2s1; X1 = CCCCc1ccc(C(=O)*)cc1; X17 = CCCc1ccc(C(=O)*)cc1; X5 = CCCNc1ccc(C(=O)*)cc1; X9 = CCOc1ccc(C(=O)*)cc1; X4 = CSc1ccc(C(=O)*)cc1

A word on the Kd: it is a measure of binding affinity in units of concentration. The IC50 is the midpoint of a concentration-inhibition curve.

Sequence of PLK1 PBD protein (residues 367-603) (P53350 367-603): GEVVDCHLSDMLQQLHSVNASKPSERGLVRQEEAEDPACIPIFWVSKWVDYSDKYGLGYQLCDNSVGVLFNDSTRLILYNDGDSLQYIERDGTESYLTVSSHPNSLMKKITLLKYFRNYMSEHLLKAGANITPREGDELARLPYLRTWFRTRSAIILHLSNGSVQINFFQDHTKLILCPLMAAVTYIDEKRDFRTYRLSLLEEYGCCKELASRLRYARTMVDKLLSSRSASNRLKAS
Sequence of PLK1 (P53350 326-603): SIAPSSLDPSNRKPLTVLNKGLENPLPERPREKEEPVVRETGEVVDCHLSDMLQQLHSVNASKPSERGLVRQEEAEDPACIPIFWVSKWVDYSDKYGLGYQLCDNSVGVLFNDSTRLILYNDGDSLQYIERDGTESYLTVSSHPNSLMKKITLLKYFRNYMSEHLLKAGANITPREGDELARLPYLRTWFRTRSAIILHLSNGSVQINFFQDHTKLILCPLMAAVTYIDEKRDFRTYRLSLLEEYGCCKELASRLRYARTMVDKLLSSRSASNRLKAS

The first experiment concerns the target PLK1 (Homo sapiens (Human), UniProt P53350).
Experiment: not given
To be noted: previously identified minimized PBD binding sequences; cited from earlier work.
As to `CC[C@H](C)[C@H](NC(=O)[C@H](C)NC(=O)[C@@H](NC(=O)[C@H](CO)NC(=O)[C@H](Cc1c[nH]cn1)NC(=O)[C@@H](N)CC(C)C)[C@@H](C)OP(=O)(O)O)C(=O)O` [compound 5649, LHS[pT]AI] (H-LHS[pT]AI-OH), the Kd was 0.25 µM.

A further experiment concerns the target PLK1 PBD protein (residues 367-603) (Homo sapiens (Human), UniProt P53350). The experiment can be described thus: Competitive fluorescence polarization (FP) binding assay, PLK1 PBD.
Conditions: not given
`CC(C)C[C@H](NC(=O)CNC(=O)[C@H](CC(N)=O)NC(=O)[C@@H]1CCCN1C(=O)[C@@H](NC(=O)[C@H](CO)NC(=O)c1cn(S(=O)(=O)c2ccccc2)c2ccccc12)[C@@H](C)OP(=O)(O)O)C(=O)O` [compound 5591] (X11-S[pT]PNGL-OH) came in with an IC50 of 375 µM.
For the compound `COc1cccc(-c2cc(C(=O)N[C@@H](CO)C(=O)N[C@H](C(=O)N3CCC[C@H]3C(=O)N[C@@H](CC(N)=O)C(=O)NCC(=O)N[C@@H](CC(C)C)C(=O)O)[C@@H](C)OP(=O)(O)O)[nH]n2)c1` [compound 5593] (X14-S[pT]PNGL-OH), the IC50 was determined as 380 µM.
As to `Cc1ccc2c(c1)N(CC(=O)N[C@@H](CO)C(=O)N[C@H](C(=O)N1CCC[C@H]1C(=O)N[C@@H](CC(N)=O)C(=O)NCC(=O)N[C@@H](CC(C)C)C(=O)O)[C@@H](C)OP(=O)(O)O)C(=O)CO2` [compound 5594, 1G1-S[pT]PNGL] (X7-S[pT]PNGL-OH), the IC50 turned out to be 350 µM.
`Cc1cc2c(SCC(=O)N[C@@H](CO)C(=O)N[C@H](C(=O)N3CCC[C@H]3C(=O)N[C@@H](CC(N)=O)C(=O)NCC(=O)N[C@@H](CC(C)C)C(=O)O)[C@@H](C)OP(=O)(O)O)ncnc2s1` [compound 5595] (X8-S[pT]PNGL-OH) yielded an IC50 of 475 µM.
With `Cc1nc(-c2ccc(C(=O)N[C@@H](CO)C(=O)N[C@H](C(=O)N3CCC[C@H]3C(=O)N[C@@H](CC(N)=O)C(=O)NCC(=O)N[C@@H](CC(C)C)C(=O)O)[C@@H](C)OP(=O)(O)O)cc2)no1` [compound 5598, 1G2-S[pT]PNGL] (X2-S[pT]PNGL-OH), the IC50 worked out at 320 µM.
Regarding `Cc1c(C(=O)N[C@@H](CO)C(=O)N[C@H](C(=O)N2CCC[C@H]2C(=O)N[C@@H](CC(N)=O)C(=O)NCC(=O)N[C@@H](CC(C)C)C(=O)O)[C@@H](C)OP(=O)(O)O)cc(-c2ccccc2)n1-c1ccccc1` [compound 5599] (X6-S[pT]PNGL-OH), the IC50 came out at 600 µM.
Compound `CC(C)C[C@H](NC(=O)CNC(=O)[C@H](CC(N)=O)NC(=O)[C@@H]1CCCN1C(=O)[C@@H](NC(=O)[C@H](CO)NC(=O)c1ccc2ncccc2c1)[C@@H](C)OP(=O)(O)O)C(=O)O` [compound 5601] ({Quinoline(6-carbonyl)}-S[pT]PNGL-OH) came in with an IC50 of 400 µM.
Regarding `Cc1ccc(-c2cn(CC(=O)N[C@@H](CO)C(=O)N[C@H](C(=O)N3CCC[C@H]3C(=O)N[C@@H](CC(N)=O)C(=O)NCC(=O)N[C@@H](CC(C)C)C(=O)O)[C@@H](C)OP(=O)(O)O)c(=O)cn2)cc1` [compound 5603, 1G3-S[pT]PNGL] (X3-S[pT]PNGL-OH), the IC50 stood at 250 µM.
`COc1cc(C(=O)N[C@@H](CO)C(=O)N[C@H](C(=O)N2CCC[C@H]2C(=O)N[C@@H](CC(N)=O)C(=O)NCC(=O)N[C@@H](CC(C)C)C(=O)O)[C@@H](C)OP(=O)(O)O)cc2c1OCCO2` [compound 5604] (X10-S[pT]PNGL-OH) registered an IC50 of 300 µM.
As for `CC(C)C[C@H](NC(=O)CNC(=O)[C@H](CC(N)=O)NC(=O)[C@@H]1CCCN1C(=O)[C@@H](NC(=O)[C@H](CO)NC(=O)c1cccc2ccccc12)[C@@H](C)OP(=O)(O)O)C(=O)O` [compound 5753] (1Naphthoyl-S[pT]PNGL-OH), the IC50 was determined as 104 µM.
`COc1ccc(C(=O)N[C@@H](CO)C(=O)N[C@H](C(=O)N2CCC[C@H]2C(=O)N[C@@H](CC(N)=O)C(=O)NCC(=O)N[C@@H](CC(C)C)C(=O)O)[C@@H](C)OP(=O)(O)O)c2ccccc12` [compound 5756, 2G1-S[pT]PNGL] (X15-S[pT]PNGL-OH) displayed an IC50 of 99 µM.

The same experiment, now with this note: Table 1.
For `CC(C)C[C@H](NC(=O)CNC(=O)[C@H](CC(N)=O)NC(=O)[C@@H]1CCCN1C(=O)[C@@H](NC(=O)[C@@H](N)CO)[C@@H](C)OP(=O)(O)O)C(=O)O` [Sample No. 5714, S[pT]PNGL] (H-S[pT]PNGL-OH), the “PLK1 PBD IC50” value is listed as “no detectable binding”.
Consider Ac-PLHSEA [compound 5744, Ac-PLHSEA], for which the “PLK1 PBD IC50” value is “weakly but detectably bound”.

The experiment is the same for the next values; noted with them: Table 1; read-out: PLK1 PBD IC50.
With `CC[C@H](C)[C@H](NC(=O)[C@H](C)NC(=O)[C@@H](NC(=O)[C@H](CO)NC(=O)[C@H](Cc1c[nH]cn1)NC(=O)[C@H](CC(C)C)NC(C)=O)[C@@H](C)OP(=O)(O)O)C(=O)O` [Sample No. 5781, Ac-LHS[pT]AI, reference compound] (Ac-LHS[pT]AI-OH), the IC50 was 5 µM.

Staying with this experiment, now noted: Table 2, FP assay; read-out: IC50.
With `COc1ccc(C(=O)N[C@@H](CO)C(=O)N[C@H](C(=O)N2CCC[C@H]2C(=O)N[C@@H](CC(N)=O)C(=O)NCC(=O)N[C@@H](CC(C)C)C(=O)O)[C@@H](C)OP(=O)(O)O)cc1` [compound 5754] ({Benzoyl(4-OMe)}-S[pT]PNGL-OH), the IC50 was found to be 125 µM.
Still for that read-out and setting: with `CCOc1ccc(C(=O)N[C@@H](CO)C(=O)N[C@H](C(=O)N2CCC[C@H]2C(=O)N[C@@H](CC(N)=O)C(=O)NCC(=O)N[C@@H](CC(C)C)C(=O)O)[C@@H](C)OP(=O)(O)O)cc1` [compound 5786] (X9-S[pT]PNGL-OH) the figure was 64.7 µM.
Take `CCc1ccc(C(=O)N[C@@H](CO)C(=O)N[C@H](C(=O)N2CCC[C@H]2C(=O)N[C@@H](CC(N)=O)C(=O)NCC(=O)N[C@@H](CC(C)C)C(=O)O)[C@@H](C)OP(=O)(O)O)cc1` [compound 5788, 3G1-S[pT]PNGL (4-ethylbenzoic acid)] ({Benzoyl(4-Et)}-S[pT]PNGL-OH): the IC50 was 16.5 µM.
For the compound `CSc1ccc(C(=O)N[C@@H](CO)C(=O)N[C@H](C(=O)N2CCC[C@H]2C(=O)N[C@@H](CC(N)=O)C(=O)NCC(=O)N[C@@H](CC(C)C)C(=O)O)[C@@H](C)OP(=O)(O)O)cc1` [compound 5791] (X4-S[pT]PNGL-OH), the IC50 is 18.5 µM.
As to `CNc1ccc(C(=O)N[C@@H](CO)C(=O)N[C@H](C(=O)N2CCC[C@H]2C(=O)N[C@@H](CC(N)=O)C(=O)NCC(=O)N[C@@H](CC(C)C)C(=O)O)[C@@H](C)OP(=O)(O)O)cc1` [compound 5792] (NMe4Abz-S[pT]PNGL-OH), the IC50 is 31.2 µM.
`CCCc1ccc(C(=O)N[C@@H](CO)C(=O)N[C@H](C(=O)N2CCC[C@H]2C(=O)N[C@@H](CC(N)=O)C(=O)NCC(=O)N[C@@H](CC(C)C)C(=O)O)[C@@H](C)OP(=O)(O)O)cc1` [compound 5826] (X17-S[pT]PNGL-OH): the IC50 came out at 10.8 µM.
In the case of `CCCCc1ccc(C(=O)N[C@@H](CO)C(=O)N[C@H](C(=O)N2CCC[C@H]2C(=O)N[C@@H](CC(N)=O)C(=O)NCC(=O)N[C@@H](CC(C)C)C(=O)O)[C@@H](C)OP(=O)(O)O)cc1` [compound 5827, 3G2-S[pT]PNGL (4-butylbenzoic acid)] (X1-S[pT]PNGL-OH), the IC50 came out at 8.6 µM.
With `CCCNc1ccc(C(=O)N[C@@H](CO)C(=O)N[C@H](C(=O)N2CCC[C@H]2C(=O)N[C@@H](CC(N)=O)C(=O)NCC(=O)N[C@@H](CC(C)C)C(=O)O)[C@@H](C)OP(=O)(O)O)cc1` [compound 5830] (X5-S[pT]PNGL-OH), the IC50 came to 16.5 µM.

The record behind these values is patent US9175357B2, “Fragment ligated inhibitors selective for the polo box domain of PLK1” (UNIVERSITY OF SOUTH CAROLINA, priority 2011, dated 2015).
